Data on 3 molecules can be found in patent publication US20120258993A1, “NON-NATURAL MACROCYCLIC AMIDE HDAC6 INHIBITOR COMPOUNDS AND THEIR USES AS THERAPEUTIC AGENTS” (SIGMA-TAU INDUSTRIE FARMACEUTICHE RIUNITE S.P.A., priority 2009, published 2012).

One may read the IC50 as the concentration at which inhibition is half-maximal. Lower therefore signals greater potency in that assay.

Holding throughout (experiment): HDAC enzyme inhibition, fluorogenic peptide substrate
Holding throughout (format): biochemical
Holding throughout (conditions): purified human enzyme, fluorogenic peptide substrate 10 μM

One assay has as its target HDAC1 (Homo sapiens, UniProt Q13547). The procedure: (§1) The substrate was incubated with the eleven single HDAC purified enzymes. Upon its deacetylation, the fluorophore was released given rise to fluorescence emission. The latter was detected by a fluorimeter, and the IC50 values of the compounds were determined by analyzing dose-response inhibition curves. TSA and SAHA were used as reference compounds.

Another assay deals with T1, HDAC10 (Homo sapiens, UniProt Q969S8).
T1 sequence (Q969S8 1-669): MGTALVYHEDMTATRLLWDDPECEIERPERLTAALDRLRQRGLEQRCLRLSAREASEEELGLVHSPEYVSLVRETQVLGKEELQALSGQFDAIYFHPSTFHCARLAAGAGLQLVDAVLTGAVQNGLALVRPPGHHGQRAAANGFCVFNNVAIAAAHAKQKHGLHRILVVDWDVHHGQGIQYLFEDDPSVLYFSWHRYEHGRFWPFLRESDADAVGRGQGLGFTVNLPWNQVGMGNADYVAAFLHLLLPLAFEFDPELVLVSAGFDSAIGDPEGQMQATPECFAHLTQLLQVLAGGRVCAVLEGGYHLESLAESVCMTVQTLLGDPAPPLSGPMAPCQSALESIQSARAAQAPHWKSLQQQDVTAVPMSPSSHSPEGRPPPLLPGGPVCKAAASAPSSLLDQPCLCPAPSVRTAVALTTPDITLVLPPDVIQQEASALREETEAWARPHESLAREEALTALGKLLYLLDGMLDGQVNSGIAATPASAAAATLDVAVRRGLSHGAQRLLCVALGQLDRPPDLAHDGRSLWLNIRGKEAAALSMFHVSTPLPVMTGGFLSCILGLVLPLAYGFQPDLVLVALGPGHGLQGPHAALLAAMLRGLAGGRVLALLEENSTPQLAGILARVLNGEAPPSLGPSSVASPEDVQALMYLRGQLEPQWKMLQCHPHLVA
As for the experimental part:
as §1

For the next assay, the target named is T2, HDAC11 (Homo sapiens, UniProt Q96DB2).
T2 sequence (Q96DB2 1-347): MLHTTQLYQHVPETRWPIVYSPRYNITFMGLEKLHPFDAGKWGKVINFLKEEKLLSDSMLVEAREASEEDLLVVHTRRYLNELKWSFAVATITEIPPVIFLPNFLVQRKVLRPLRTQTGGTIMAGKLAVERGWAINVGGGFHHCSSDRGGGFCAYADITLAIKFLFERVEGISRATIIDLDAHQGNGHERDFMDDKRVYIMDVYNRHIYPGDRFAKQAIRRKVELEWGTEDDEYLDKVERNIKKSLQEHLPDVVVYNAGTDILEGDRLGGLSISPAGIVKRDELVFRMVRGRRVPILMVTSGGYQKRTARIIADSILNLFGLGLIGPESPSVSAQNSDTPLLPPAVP
The procedure: as §1

For the next assay, the target named is HDAC2 (Homo sapiens, UniProt Q92769). As for the experimental part: as §1
In the next assay the target is HDAC3 (Homo sapiens, UniProt O15379). The procedure:
as §1

Another assay deals with HDAC4 (Homo sapiens, UniProt P56524). As for the experimental part:
as §1

The next assay has as its target HDAC5 (Homo sapiens, UniProt Q9UQL6). As for the experimental part: as §1
The target in the next assay is T3, HDAC6 (Homo sapiens, UniProt Q9UBN7).
T3 sequence (Q9UBN7 1-1215): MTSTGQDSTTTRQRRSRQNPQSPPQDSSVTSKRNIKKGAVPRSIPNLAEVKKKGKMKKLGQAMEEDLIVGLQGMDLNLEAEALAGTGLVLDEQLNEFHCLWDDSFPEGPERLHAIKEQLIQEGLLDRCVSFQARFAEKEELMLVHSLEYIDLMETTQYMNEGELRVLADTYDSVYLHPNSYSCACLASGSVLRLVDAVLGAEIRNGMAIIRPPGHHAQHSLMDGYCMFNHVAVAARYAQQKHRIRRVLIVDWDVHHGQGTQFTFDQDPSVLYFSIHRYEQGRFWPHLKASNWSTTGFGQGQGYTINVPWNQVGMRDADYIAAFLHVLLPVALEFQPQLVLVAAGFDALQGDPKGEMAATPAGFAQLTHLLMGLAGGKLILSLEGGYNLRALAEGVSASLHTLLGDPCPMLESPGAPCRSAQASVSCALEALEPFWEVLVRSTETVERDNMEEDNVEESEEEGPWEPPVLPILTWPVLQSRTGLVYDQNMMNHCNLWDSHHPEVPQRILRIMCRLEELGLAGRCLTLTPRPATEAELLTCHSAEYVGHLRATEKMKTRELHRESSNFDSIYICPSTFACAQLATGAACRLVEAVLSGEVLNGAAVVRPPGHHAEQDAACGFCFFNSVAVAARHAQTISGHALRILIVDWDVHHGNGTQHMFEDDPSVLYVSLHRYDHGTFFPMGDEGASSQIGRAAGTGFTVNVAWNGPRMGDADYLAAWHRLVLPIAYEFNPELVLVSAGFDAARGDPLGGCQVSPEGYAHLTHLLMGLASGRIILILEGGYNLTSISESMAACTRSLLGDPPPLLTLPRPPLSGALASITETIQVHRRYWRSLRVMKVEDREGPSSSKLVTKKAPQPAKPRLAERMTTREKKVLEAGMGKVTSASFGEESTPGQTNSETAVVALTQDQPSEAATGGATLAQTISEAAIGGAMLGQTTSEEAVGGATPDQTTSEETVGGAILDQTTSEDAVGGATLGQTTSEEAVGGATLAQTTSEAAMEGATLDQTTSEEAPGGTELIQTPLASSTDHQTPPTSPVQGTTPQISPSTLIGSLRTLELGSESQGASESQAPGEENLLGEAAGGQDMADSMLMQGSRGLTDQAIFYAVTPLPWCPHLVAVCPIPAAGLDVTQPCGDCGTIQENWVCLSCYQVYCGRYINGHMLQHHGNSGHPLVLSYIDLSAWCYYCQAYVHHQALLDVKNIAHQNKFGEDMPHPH
The procedure: as §1

The next assay addresses T4, HDAC8 (Homo sapiens, UniProt Q9BY41).
T4 sequence (Q9BY41 1-377): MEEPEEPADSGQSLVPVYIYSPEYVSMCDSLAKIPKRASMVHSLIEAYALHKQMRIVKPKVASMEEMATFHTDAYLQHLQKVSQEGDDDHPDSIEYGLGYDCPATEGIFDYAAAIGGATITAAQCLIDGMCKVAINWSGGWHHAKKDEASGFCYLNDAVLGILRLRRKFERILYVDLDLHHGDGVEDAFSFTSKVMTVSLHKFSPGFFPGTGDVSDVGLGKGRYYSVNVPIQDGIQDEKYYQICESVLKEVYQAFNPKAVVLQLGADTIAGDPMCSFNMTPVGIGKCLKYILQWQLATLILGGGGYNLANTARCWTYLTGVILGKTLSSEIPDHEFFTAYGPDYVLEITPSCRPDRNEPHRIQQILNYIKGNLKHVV
As for the experimental part: as §1

A further assay addresses T5, HDAC7 (Homo sapiens, UniProt Q8WUI4).
T5 sequence (Q8WUI4 1-952): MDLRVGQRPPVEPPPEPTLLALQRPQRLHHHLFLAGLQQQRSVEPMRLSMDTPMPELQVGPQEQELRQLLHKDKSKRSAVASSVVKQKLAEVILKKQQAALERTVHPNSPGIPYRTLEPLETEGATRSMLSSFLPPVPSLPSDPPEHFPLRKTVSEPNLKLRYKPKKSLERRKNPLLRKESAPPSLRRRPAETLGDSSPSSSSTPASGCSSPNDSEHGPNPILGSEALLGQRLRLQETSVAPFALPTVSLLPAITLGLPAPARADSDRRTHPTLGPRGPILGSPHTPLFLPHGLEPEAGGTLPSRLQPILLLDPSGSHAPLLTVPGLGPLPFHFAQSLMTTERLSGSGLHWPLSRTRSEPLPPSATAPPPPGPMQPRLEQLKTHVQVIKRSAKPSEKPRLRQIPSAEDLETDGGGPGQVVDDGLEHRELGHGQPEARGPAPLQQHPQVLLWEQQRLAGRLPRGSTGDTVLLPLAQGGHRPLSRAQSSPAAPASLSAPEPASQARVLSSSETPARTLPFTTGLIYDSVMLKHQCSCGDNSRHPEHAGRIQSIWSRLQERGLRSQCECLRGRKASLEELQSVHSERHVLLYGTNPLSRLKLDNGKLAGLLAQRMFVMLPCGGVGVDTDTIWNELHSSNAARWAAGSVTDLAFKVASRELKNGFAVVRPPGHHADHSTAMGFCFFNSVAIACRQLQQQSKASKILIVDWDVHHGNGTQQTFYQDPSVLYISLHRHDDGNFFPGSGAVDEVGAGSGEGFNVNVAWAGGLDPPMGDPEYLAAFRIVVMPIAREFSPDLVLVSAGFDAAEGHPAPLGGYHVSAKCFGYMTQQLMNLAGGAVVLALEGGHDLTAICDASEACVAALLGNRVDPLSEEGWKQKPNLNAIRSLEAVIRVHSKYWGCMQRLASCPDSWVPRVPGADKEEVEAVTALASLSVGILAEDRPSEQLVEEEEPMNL
As for the experimental part:
(§2) The substrate was incubated with the eleven single HDAC purified enzymes. Upon its deacetylation, the fluorophore was released given rise to fluorescence emission. The latter was detected by a fluorimeter, and the IC50 values of the compounds were determined by analyzing dose-response inhibition curves.

Another assay concerns the target HDAC9 (Homo sapiens, UniProt Q9UKV0). The procedure: as §2

HDAC1, sequence (Q13547 whole entry): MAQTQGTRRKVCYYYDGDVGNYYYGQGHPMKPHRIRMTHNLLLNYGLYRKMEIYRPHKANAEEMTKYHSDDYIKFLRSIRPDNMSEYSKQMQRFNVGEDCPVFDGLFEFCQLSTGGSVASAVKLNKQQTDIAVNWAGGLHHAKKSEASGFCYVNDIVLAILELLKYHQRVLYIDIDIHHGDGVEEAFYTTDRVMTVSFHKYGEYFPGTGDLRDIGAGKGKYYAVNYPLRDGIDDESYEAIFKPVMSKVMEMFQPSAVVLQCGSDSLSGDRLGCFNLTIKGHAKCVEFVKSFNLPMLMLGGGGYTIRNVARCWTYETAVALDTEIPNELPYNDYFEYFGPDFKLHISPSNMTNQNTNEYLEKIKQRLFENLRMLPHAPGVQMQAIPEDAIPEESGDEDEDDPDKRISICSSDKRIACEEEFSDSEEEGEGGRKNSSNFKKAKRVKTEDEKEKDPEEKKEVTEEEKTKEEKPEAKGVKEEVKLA
HDAC5, sequence (Q9UQL6 whole entry): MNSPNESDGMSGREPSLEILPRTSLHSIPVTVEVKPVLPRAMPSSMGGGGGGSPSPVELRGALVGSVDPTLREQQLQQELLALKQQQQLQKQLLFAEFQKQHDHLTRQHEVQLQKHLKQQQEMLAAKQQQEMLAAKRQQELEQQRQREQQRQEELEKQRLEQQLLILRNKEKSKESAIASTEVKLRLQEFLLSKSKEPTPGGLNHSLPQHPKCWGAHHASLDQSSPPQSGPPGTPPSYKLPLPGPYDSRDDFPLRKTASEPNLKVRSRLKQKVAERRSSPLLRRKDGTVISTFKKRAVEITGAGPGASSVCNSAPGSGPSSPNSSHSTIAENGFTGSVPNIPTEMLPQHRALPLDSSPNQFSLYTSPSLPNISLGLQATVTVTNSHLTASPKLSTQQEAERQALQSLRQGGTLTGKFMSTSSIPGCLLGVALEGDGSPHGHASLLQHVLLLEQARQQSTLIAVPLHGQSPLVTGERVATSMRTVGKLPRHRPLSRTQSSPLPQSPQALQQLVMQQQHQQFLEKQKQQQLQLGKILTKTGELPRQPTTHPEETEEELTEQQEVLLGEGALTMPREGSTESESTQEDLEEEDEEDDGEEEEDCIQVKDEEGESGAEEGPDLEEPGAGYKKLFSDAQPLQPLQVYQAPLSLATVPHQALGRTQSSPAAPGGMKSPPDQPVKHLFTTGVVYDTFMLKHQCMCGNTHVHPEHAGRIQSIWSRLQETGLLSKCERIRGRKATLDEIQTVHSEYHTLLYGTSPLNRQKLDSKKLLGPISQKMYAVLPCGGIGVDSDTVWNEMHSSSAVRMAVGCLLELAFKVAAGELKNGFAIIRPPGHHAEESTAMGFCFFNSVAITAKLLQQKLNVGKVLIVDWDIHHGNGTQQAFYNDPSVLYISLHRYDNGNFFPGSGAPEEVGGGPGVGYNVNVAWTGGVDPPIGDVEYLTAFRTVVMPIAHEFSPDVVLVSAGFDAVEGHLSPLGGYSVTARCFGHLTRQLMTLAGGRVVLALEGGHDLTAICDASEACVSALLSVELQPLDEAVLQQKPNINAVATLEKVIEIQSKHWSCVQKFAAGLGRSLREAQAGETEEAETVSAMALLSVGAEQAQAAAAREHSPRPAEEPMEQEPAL
HDAC2, sequence (Q92769 whole entry): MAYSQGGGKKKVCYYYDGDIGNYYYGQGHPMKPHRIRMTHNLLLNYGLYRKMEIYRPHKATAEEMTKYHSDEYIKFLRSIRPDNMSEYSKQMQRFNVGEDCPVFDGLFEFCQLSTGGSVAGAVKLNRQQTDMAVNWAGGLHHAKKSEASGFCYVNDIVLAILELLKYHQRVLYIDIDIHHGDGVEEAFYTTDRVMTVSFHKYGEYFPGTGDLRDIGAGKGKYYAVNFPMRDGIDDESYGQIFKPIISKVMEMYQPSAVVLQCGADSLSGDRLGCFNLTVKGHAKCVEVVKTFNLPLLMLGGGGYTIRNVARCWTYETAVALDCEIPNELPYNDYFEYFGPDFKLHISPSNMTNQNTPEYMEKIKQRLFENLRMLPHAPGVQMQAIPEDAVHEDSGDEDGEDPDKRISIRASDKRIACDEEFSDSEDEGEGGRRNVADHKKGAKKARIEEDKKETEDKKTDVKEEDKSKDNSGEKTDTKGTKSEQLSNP
HDAC3, sequence (O15379 whole entry): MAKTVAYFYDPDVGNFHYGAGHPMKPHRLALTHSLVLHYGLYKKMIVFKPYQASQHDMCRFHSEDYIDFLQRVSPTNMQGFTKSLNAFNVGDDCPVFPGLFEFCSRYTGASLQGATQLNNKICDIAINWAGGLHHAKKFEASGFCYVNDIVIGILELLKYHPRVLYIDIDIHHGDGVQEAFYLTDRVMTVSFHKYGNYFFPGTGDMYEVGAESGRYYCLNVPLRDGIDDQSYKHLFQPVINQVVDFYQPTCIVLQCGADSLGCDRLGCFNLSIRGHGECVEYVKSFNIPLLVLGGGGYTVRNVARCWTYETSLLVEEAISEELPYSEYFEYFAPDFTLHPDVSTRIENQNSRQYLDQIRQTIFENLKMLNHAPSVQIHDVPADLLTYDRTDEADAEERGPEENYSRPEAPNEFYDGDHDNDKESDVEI
HDAC3, sequence (Q9Y618 395-489 partner limits assumed): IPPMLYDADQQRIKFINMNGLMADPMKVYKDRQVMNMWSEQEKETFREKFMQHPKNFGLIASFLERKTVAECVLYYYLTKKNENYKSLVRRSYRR
HDAC9, sequence (Q9UKV0 whole entry): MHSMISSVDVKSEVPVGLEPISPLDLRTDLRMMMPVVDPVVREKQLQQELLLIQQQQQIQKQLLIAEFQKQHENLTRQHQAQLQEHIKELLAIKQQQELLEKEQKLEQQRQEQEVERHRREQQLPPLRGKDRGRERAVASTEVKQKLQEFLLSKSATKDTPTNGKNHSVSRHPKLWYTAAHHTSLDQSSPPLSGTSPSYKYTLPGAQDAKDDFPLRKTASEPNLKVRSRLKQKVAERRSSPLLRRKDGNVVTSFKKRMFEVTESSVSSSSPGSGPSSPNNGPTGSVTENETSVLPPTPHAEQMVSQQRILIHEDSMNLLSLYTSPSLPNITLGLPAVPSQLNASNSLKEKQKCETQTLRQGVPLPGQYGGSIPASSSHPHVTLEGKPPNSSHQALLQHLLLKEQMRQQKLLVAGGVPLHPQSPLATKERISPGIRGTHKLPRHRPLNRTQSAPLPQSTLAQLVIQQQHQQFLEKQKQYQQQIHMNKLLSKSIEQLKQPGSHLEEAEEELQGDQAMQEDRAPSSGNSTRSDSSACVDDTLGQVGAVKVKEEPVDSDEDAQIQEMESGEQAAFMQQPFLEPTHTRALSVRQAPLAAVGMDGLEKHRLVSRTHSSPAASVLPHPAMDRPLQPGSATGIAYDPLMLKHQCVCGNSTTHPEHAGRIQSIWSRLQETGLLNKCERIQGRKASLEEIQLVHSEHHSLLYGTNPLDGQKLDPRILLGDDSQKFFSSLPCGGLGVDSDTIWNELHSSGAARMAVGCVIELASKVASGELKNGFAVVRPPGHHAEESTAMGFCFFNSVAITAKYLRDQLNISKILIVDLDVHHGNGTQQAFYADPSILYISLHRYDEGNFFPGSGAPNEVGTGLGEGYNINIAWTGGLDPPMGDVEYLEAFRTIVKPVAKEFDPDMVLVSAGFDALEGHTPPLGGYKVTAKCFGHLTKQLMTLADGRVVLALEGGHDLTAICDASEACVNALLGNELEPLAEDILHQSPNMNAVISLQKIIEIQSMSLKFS
HDAC4, sequence (P56524 whole entry): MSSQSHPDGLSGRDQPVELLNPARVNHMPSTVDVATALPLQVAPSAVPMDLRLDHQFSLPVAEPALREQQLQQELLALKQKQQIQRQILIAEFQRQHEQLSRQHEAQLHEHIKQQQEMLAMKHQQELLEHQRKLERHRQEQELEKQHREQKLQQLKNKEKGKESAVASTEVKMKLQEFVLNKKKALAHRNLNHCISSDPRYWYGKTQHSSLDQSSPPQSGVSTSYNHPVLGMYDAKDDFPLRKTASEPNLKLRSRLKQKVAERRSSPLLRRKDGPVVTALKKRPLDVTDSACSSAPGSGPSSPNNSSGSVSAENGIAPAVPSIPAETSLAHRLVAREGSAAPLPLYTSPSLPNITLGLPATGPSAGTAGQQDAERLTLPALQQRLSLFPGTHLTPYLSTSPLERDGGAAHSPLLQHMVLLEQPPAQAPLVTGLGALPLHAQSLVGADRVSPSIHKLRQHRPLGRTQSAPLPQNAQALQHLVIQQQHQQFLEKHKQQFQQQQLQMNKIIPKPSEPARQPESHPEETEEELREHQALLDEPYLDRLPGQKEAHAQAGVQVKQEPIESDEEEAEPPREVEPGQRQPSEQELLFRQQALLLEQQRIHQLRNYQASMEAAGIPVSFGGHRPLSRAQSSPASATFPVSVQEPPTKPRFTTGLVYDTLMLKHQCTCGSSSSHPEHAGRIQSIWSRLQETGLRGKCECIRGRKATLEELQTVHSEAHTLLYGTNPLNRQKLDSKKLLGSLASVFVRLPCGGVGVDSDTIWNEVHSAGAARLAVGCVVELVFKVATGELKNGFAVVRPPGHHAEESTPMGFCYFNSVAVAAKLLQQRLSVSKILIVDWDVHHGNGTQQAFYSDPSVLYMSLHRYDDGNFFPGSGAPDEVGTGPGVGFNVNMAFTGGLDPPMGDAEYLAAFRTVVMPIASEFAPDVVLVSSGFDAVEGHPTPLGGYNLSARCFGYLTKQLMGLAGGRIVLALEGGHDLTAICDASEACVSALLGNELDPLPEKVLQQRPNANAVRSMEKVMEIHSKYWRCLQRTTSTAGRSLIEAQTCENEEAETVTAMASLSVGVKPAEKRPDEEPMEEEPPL

For the molecule “(S)-2-(6,18-dioxo-5,6,7,9,10,11,12,13,18,19-decahydrobenzo[5,6][1,4,7]-oxadiazacyclo-tetradecino[10,9-b]indol-7-yl)-N-hydroxyacetamide [Example 3]”, the IC50 on HDAC1 was 0.245 µM; at HDAC10 it was 0.627 µM; against HDAC11 it was 0.379 µM; against HDAC2 it was 0.584 µM; against HDAC3, 0.331 µM; at HDAC4, 1.69 µM. Also, the IC50 on HDAC5 worked out at 0.496 µM; at HDAC6, 0.0044 µM; against HDAC8 it was 0.297 µM; on HDAC7, 2.23 µM; against HDAC9, 0.602 µM.

With `COc1cc2cc(c1)C(=O)Nc1ccccc1NC(=O)[C@@H](CCCCCC(=O)NO)OC/C=C\2` [Example 2, 6-((Z)—(R)-19-methoxy-2,11-dioxo-13-oxa-3,10-diaza-tricyclo[15.3.1.0*4,9*]henicosa-1(21),4,6,8,15,17,19-heptaen-12-yl)-hexanoic hydroxamic acid], the concentration for half-maximal inhibition (IC50) at HDAC1 amounted to 1.34 µM; against HDAC10, 1.88 µM; against HDAC11 it was 1.11 µM; on HDAC2, 2.53 µM; against HDAC3 it was 0.885 µM; on HDAC4, 3.48 µM. For the same molecule, the IC50 was 1.34 µM on HDAC5; 0.075 µM at HDAC6; 0.682 µM against HDAC8; 2.07 µM against HDAC7; 1.14 µM on HDAC9.

As to `COc1cc2cc(c1)C(=O)Nc1ccccc1NC(=O)[C@H](CCCCCC(=O)NO)OC/C=C\2` [Example 1, 6-((Z)—(S)-19-methoxy-2,11-dioxo-13-oxa-3,10-diaza-tricyclo[15.3.1.0*4,9*]henicosa-1(21),4,6,8,15,17,19-heptaen-12-yl)-hexanoic hydroxamic acid], the concentration for half-maximal inhibition (IC50) stood at 0.864 µM against HDAC1; 2.29 µM against HDAC10; 0.948 µM against HDAC11; 3.28 µM against HDAC2; 1.11 µM at HDAC3; 5.33 µM against HDAC4. Also, the IC50 was determined as 1.66 µM against HDAC5; 0.059 µM on HDAC6; 0.534 µM against HDAC8; 4.3 µM against HDAC7; 2.02 µM against HDAC9.
